Data published in patent US20210315837A1, “CANNABINOIDS FOR THE TREATMENT OF GRAM-POSITIVE INFECTIONS INCLUDING ANTIBIOTIC-RESISTANT BACTERIAL STRAINS” (priority 2018, published 2021).
In brackets after ≈: the same amount, converted by molar mass. Several values for one entry are separate records, joined by “and”; a condition that tells them apart may be missing. Equal entries are not always repeated. Where two headings read alike, the source gives them in different places.

Key:
MRS USA 300 = assay: IC50, MIC and MBC against MRS USA 300; type: cell-based, Staphylococcus aureus
Experimental: (§1) As used herein, the term “minimum inhibitory concentration (MIC)” refers to the lowest concentration of an antimicrobial agent that will inhibit the visible growth of a microorganism after overnight incubation. MIC values against bacteria may be determined by standard methods. See also P. A. Wayne, Methods for Dilution Antimicrobial Tests for Bacteria that Grow Aerobically; Approved Standard, Ninth Edition, 2012, CLSI Document M07-A9, Vol. 32 No. 2, which is incorporated by reference herein in its entirety.

[1] = test system: MRS 1708 (Mupirocin-resistant); assay: IC50, MIC and MBC against MRS 1708 (Mupirocin-resistant); type: cell-based, Staphylococcus aureus; details: for IC50 / MBC / MIC: Staphylococcus aureus
Experimental: as §1

MRS 33591 [2] = assay: IC50, MIC and MBC against MRS 33591; type: cell-based, Staphylococcus aureus
Experimental: as §1

MRS USA 400 = assay: IC50, MIC and MBC against MRS USA 400; type: cell-based, Staphylococcus aureus
Experimental: as §1

S. aureus 29213 = assay: IC50, MIC and MBC against S. aureus 29213; type: cell-based; details: Staphylococcus aureus; for IC50: 29213; for MIC: S. aureus 29213, tested Conc. in μg/mL, read-out: MIC
Experimental: As used herein, the term “minimum inhibitory concentration (MIC)” refers to the lowest concentration of an antimicrobial agent that will inhibit the visible growth of a microorganism after overnight incubation. MIC values against bacteria may be determined by standard methods.

MRS 33591 [3] = assay: Growth inhibition of cannabinoid combinations, IC50s chosen for FICs, MRS 33591; type: cell-based; details: Staphylococcus aureus
MRS 1696 = assay: Growth inhibition of cannabinoid combinations, IC50s chosen for FICs, MRS 1696; type: cell-based; details: Staphylococcus aureus
MRS 1708 = assay: Growth inhibition of cannabinoid combinations, IC50s chosen for FICs, MRS 1708; type: cell-based; details: Staphylococcus aureus
MRS 1717 = assay: Growth inhibition of cannabinoid combinations, IC50s chosen for FICs, MRS 1717; type: cell-based; details: Staphylococcus aureus
Mupirocin-resistant MRS = type: cell-based, Staphylococcus aureus; details: in combination with Mupirocin
[4] = MRS USA 300, tested Conc. in μg/mL
[5] = MRS 33591, tested Conc. in μg/mL
[6] = MRS USA 400, tested Conc. in μg/mL
[7] = read-out: IC50, Cannabidiol (CBD) + Cannabigerol (CBG)
[8] = read-out: IC50, Cannabinol (CBN) + Cannabigerol (CBG)
[9] = IC50 of first-named cannabinoid at the fixed ug/mL of the second given in the label, read-out: IC50, Cannabinol (CBN) + Cannabigerol (CBG)
[10] = read-out: IC50, Cannabidiol (CBD) + Cannabinol (CBN)

Compound	MIC (MRS USA 300; [4])	IC50 (MRS USA 300; Staphylococcus aureus, USA300)	MBC (MRS USA 300; Staphylococcus aureus, USA300)	MIC (MRS USA 300; Staphylococcus aureus, USA300)	IC50 [1]	MBC [1]	MIC [1]	MBC (MRS 33591 [2]; [5])	IC50 (MRS 33591 [2]; Staphylococcus aureus)	MBC (MRS 33591 [2]; Staphylococcus aureus)	MIC (MRS 33591 [2]; Staphylococcus aureus)	MIC (MRS USA 400; [6])	IC50 (MRS USA 400; Staphylococcus aureus, USA400)	MBC (MRS USA 400; Staphylococcus aureus, USA400)	MIC (MRS USA 400; Staphylococcus aureus, USA400)	IC50 (S. aureus 29213)	MIC (S. aureus 29213)	IC50 (MRS 33591 [3]; [8])	IC50 (MRS 1696; [8])	IC50 (MRS 1708; [9])	also measured
CCCCCc1cc(O)c(C/C=C(\C)CCC=C(C)C)c(O)c1 [CBG, Cannabigerol]	1.67	2.43 µM and 0.77 µg/mL	> 63 µM	5.28 ± 2.27 µM (≈ 1.67 µg/mL)	2.34 µM and 0.74 µg/mL	> 63 µM	3.95 µM (≈ 1.25 µg/mL)	3.75	2.31 µM and 0.73 µg/mL	11.8 ± 5.59 µM (≈ 3.75 µg/mL)	3.95 µM and 1.25 µg/mL	1.67	2.72 µM and 0.86 µg/mL	> 63 µM	5.28 ± 2.27 µM (≈ 1.67 µg/mL)	0.75 mg/L (≈ 2.37 µM)	1.25 mg/L (≈ 3.95 µM)	1.05 mg/L	0.896 mg/L	0.872 µg/mL	IC50 (MRS 33591 [3]; [7]): 1.08 mg/L; IC50 (MRS 1696; [7]): 0.9 mg/L; IC50 (MRS 1708; read-out: IC50, Cannabidiol (CBD) + Cannabigerol (CBG), IC50 of first-named cannabinoid at the fixed ug/mL of the second given in the label): 0.959 µg/mL; IC50 (MRS 1717; [7]): 0.741 mg/L; IC50 (MRS 1717; [8]): 0.911 mg/L; effect of combination with Mupirocin (Mupirocin-resistant MRS): no effect
CCCCCc1cc(O)c2c(c1)OC(C)(C)c1ccc(C)cc1-2 [CNB, Cannabinol]	2.5 ± 0	3.32 µM and 1.03 µg/mL	10.7 ± 4.64 µM (≈ 3.33 µg/mL)	8.05 µM (≈ 2.5 µg/mL)	2.77 µM and 0.86 µg/mL	6.7 ± 2.32 µM (≈ 2.08 µg/mL)	5.38 ± 7.32 µM (≈ 1.67 µg/mL)	4.17	2.48 µM and 0.77 µg/mL	13.4 ± 4.64 µM (≈ 4.17 µg/mL)	4.03 µM and 1.25 µg/mL	2.5 ± 0	4.16 µM and 1.29 µg/mL	18.8 ± 12.3 µM (≈ 5.83 µg/mL)	8.05 µM (≈ 2.5 µg/mL)	0.92 mg/L (≈ 2.96 µM)	1.67 mg/L (≈ 5.38 µM)	1.11 mg/L	1.32 mg/L	1.07 µg/mL	MBC (MRS USA 300; [4]): 3.33; AMC ([1]; Mupirocin-resistant MRS (Table 11)): 2.08 ± 0.72; MBC (MRS USA 400; [6]): 5.83 ± 3.82; IC50 (MRS 33591 [3]; [10]): 1.09 mg/L; IC50 (MRS 1696; [10]): 1.5 mg/L; IC50 (MRS 1708; read-out: IC50, Cannabidiol (CBD) + Cannabinol (CBN), IC50 of first-named cannabinoid at the fixed ug/mL of the second given in the label): 0.956 µg/mL; IC50 (MRS 1717; [10]): 0.908 mg/L; IC50 (MRS 1717; [8]): 1.11 mg/L; effect of combination with Mupirocin (Mupirocin-resistant MRS): no effect
